The record followed here is PubChem BioAssay AID330 (DTP/NCI, 2004).

Molecules are shown by their SMILES. “And” between values parts separate entries of the source, which are not always exact repeats. Equal entries are not always repeated. Inconclusive results and toxic doses are left out. Peptide text beside a SMILES is read from it.

In the test the test system is P388 leukemia ip, CD2F1 mice, survival T/C. Description: NCI In Vivo Anticancer Drug Screen. Data for tumor model P388 Leukemia (intraperitoneal) in CD2F1 (CDF1) mice. Particulars: endpoint: median survival time, higher = longer survival. In outline: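 Mice carrying the transplanted tumor received test compound or vehicle. Survival was recorded in each group, and the value is the treated-group measurement divided by that of the vehicle-treated control group.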

Where [1] appears, read: dose: 6.25 mg/kg/injection, schedule: Q01DX009 (ip), vehicle: saline with Tween-80.
Setting [2] is: dose: 12.5 mg/kg/injection, schedule: Q01DX009 (ip), vehicle: saline with Tween-80.
Where [3] appears, read: dose: 25.0 mg/kg/injection, schedule: Q01DX009 (ip), vehicle: saline with Tween-80.
Where [4] appears, read: dose: 50.0 mg/kg/injection, schedule: Q01DX009 (ip), vehicle: saline with Tween-80.
Where [5] appears, read: dose: 50.0 mg/kg/injection, schedule: Q01DX005 (ip), vehicle: saline with Tween-80.
Where [6] appears, read: dose: 100.0 mg/kg/injection, schedule: Q01DX005 (ip), vehicle: saline with Tween-80.
Where [7] appears, read: dose: 50.0 mg/kg/injection, schedule: Q01DX005 (ip), vehicle: Klucel (hydroxypropylcellulose) (HPC).
[8] abbreviates: dose: 100.0 mg/kg/injection, schedule: Q01DX005 (ip), vehicle: Klucel (hydroxypropylcellulose) (HPC).
[9] abbreviates: dose: 200.0 mg/kg/injection, schedule: Q01DX005 (ip), vehicle: Klucel (hydroxypropylcellulose) (HPC).
Where [10] appears, read: dose: 3.13 mg/kg/injection, schedule: Q01DX009 (ip), vehicle: saline with Tween-80.
The mark [11] stands for this setting: dose: 100.0 mg/kg/injection, schedule: Q01DX009 (ip), vehicle: saline with Tween-80.
The mark [12] stands for this setting: dose: 200.0 mg/kg/injection, schedule: Q01DX009 (ip), vehicle: saline with Tween-80.
Where [13] appears, read: dose: 60.0 mg/kg/injection, schedule: Q01DX005 (ip), vehicle: saline with Tween-80.
Setting [14] is: dose: 120.0 mg/kg/injection, schedule: Q01DX005 (ip), vehicle: saline with Tween-80.
Setting [15] is: dose: 100.0 mg/kg/injection, schedule: Q04DX003 (ip), vehicle: saline.
The mark [16] stands for this setting: dose: 200.0 mg/kg/injection, schedule: Q04DX003 (ip), vehicle: saline.
The mark [17] stands for this setting: dose: 400.0 mg/kg/injection, schedule: Q04DX003 (ip), vehicle: saline.

`Cc1[nH]c2cc3c(cc2c(=O)c1Cc1c(C)[nH]c2cc4c(cc2c1=O)CCCC4)CCCC3`: the T/C was 87 % of control (dose: 100.0 mg/kg/injection, schedule: Q01DX001 (ip), vehicle: Klucel (hydroxypropylcellulose) (HPC)); 88 % of control (dose: 200.0 mg/kg/injection, schedule: Q01DX001 (ip), vehicle: Klucel (hydroxypropylcellulose) (HPC)); 87 % of control (dose: 400.0 mg/kg/injection, schedule: Q01DX001 (ip), vehicle: Klucel (hydroxypropylcellulose) (HPC)).

For `COc1cc(Cl)c(CC(=O)c2c[nH]c3ccccc23)cc1OC`, the T/C runs as follows: under setting [1], 94 % of control; under setting [2], 92 % of control; under setting [3], 100 % of control; under setting [4], 93 % of control.

Take `CCN(Cc1cccc(S(=O)(=O)O)c1)c1ccc(C(=C2C=CC(=[N+](CC)Cc3cccc(S(=O)(=O)O)c3)C=C2)c2ccc(O)c(S(=O)(=O)O)c2)cc1`: the T/C is 97 % of control under setting [5]; 99 % of control under setting [6]; 100 % of control (dose: 200.0 mg/kg/injection, schedule: Q01DX005 (ip), vehicle: saline with Tween-80).

Regarding `Cc1nnc2c3c4c(sc3nc(C)n12)CCCC4`, the T/C reads like this: under setting [7], 94 % of control; under setting [8], 98 % of control; under setting [9], 104 % of control.

As to `Cc1cc2[n-]c1/C=c1\[n-]/c(c(CCC(=O)O)c1C)=C\c1[n-]c(c(C)c1CCC(=O)O)/C=c1/cc(C)/c([n-]1)=C/2.[Co]`, the T/C (dose: 12.5 mg/kg/injection, schedule: Q01DX005 (ip), vehicle: Klucel (hydroxypropylcellulose) (HPC)) is 98 % of control; the T/C (dose: 25.0 mg/kg/injection, schedule: Q01DX005 (ip), vehicle: Klucel (hydroxypropylcellulose) (HPC)) is 101 % of control and 97 % of control; the T/C under setting [7] is 106 % of control.

In the case of `CCC/C=C/C=C/C(=O)OC1C(C)C2(O)C3C=C(C)C(=O)C3CC(COC(C)=O)=CC2C2C(C)(C)C12OC(=O)C(C)C` (stereo unspecified), the T/C runs as follows: (dose: 0.12 mg/kg/injection, schedule: Q01DX009 (ip), vehicle: Klucel (hydroxypropylcellulose) (HPC)) 111 % of control; (dose: 0.25 mg/kg/injection, schedule: Q01DX009 (ip), vehicle: Klucel (hydroxypropylcellulose) (HPC)) 103 % of control; (dose: 0.5 mg/kg/injection, schedule: Q01DX009 (ip), vehicle: Klucel (hydroxypropylcellulose) (HPC)) 107 % of control; (dose: 1.0 mg/kg/injection, schedule: Q01DX005 (ip), vehicle: distilled water + Tween-80) 109 % of control and 113 % of control; (dose: 1.0 mg/kg/injection, schedule: Q01DX009 (ip), vehicle: Klucel (hydroxypropylcellulose) (HPC)) 106 % of control; (dose: 2.0 mg/kg/injection, schedule: Q01DX005 (ip), vehicle: distilled water + Tween-80) 121 % of control and 123 % of control. Further, the T/C was 115 % of control (dose: 2.0 mg/kg/injection, schedule: Q01DX005 (ip), vehicle: saline + alcohol) and 123 % of control (dose: 4.0 mg/kg/injection, schedule: Q01DX005 (ip), vehicle: saline + alcohol).

Consider `CC(NC(=O)C(CO)NC(=O)OCc1ccccc1)C(=O)O` (stereo unspecified), for which the T/C is 118 % of control under setting [7], 97 % of control under setting [8] and 108 % of control under setting [9].

Regarding `CC(C)N1C(=O)C(C#N)=C(c2ccccc2)SC1c1ccccc1` (stereo unspecified), the T/C is 104 % of control under setting [10]; 101 % of control under setting [1]; 106 % of control under setting [2]; 94 % of control under setting [4]; 99 % of control under setting [11].

Consider `Nc1ccc(N=Nc2ccc(S(=O)(=O)O)cc2)cc1`, for which the T/C is 95 % of control (dose: 100.0 mg/kg/injection, schedule: Q04DX003 (ip), vehicle: saline with Tween-80); 100 % of control (dose: 200.0 mg/kg/injection, schedule: Q04DX003 (ip), vehicle: saline with Tween-80); 100 % of control (dose: 400.0 mg/kg/injection, schedule: Q04DX003 (ip), vehicle: saline with Tween-80).

On to `CCCCCCNC(N)=NCCCC(N)C(=O)O` (stereo unspecified), for which the T/C by setting is: under setting [7], 103 % of control; under setting [8], 102 % of control; under setting [9], 106 % of control.

On to `O=C1c2ccccc2C(=O)c2sccc21`, for which the T/C runs as follows: (dose: 1.56 mg/kg/injection, schedule: Q01DX009 (ip), vehicle: saline with Tween-80) 98 % of control; under setting [10], 105 % of control; under setting [1], 103 % of control; under setting [2], 99 % of control; under setting [3], 97 % of control; under setting [11], 88 % of control.

As to `CCOC(=O)C(=CNc1ccccn1)C(=O)OCC`, the T/C is 95 % of control under setting [11]; 100 % of control under setting [12]; 113 % of control (dose: 400.0 mg/kg/injection, schedule: Q01DX009 (ip), vehicle: saline with Tween-80).

As for `COC(=O)C(CCCN=C(N)N)NC(=O)C(N)CCCCN` (stereo not drawn) (H-Lys-Arg-OMe; configuration not given here), the T/C is 100 % of control under setting [13]; 100 % of control under setting [14]; 100 % of control (dose: 240.0 mg/kg/injection, schedule: Q01DX005 (ip), vehicle: saline with Tween-80).

`CC1=NN(C(=O)c2ccncc2)C(=O)C1N=Nc1ccc(Cl)cc1` (stereo unspecified): the T/C reads like this: under setting [4], 104 % of control; under setting [11], 99 % of control; under setting [12], 105 % of control.

Turning to `COc1cc(C2c3cc4c(cc3OC(O)C2C)OCO4)cc(OC)c1OC` (stereo unspecified), the T/C was 99 % of control (dose: 15.0 mg/kg/injection, schedule: Q01DX005 (ip), vehicle: saline with Tween-80); 101 % of control (dose: 30.0 mg/kg/injection, schedule: Q01DX005 (ip), vehicle: saline with Tween-80); 99 % of control and 112 % of control under setting [13]; 117 % of control under setting [14].

Turning to `CCC(C(=O)c1ccccc1)C1(C(=O)OC)NC(=S)NC(=O)C1C#N` (stereo unspecified), the T/C was 95 % of control (dose: 60.0 mg/kg/injection, schedule: Q01DX005 (ip), vehicle: saline); 95 % of control (dose: 120.0 mg/kg/injection, schedule: Q01DX005 (ip), vehicle: saline); 100 % of control (dose: 240.0 mg/kg/injection, schedule: Q01DX005 (ip), vehicle: saline).

With `CSC(=S)c1ccccc1NS(=O)(=O)c1ccccc1`, the T/C is 113 % of control under setting [15], 103 % of control under setting [16] and 108 % of control under setting [17].

Regarding `CC1(C)OCC(CO)(Nc2nc(N3CC3)nc(N3CC3)n2)CO1`, the T/C is 120 % of control (dose: 0.62 mg/kg/injection, schedule: Q01DX009 (ip), vehicle: saline); 158 % of control and 164 % of control (dose: 1.25 mg/kg/injection, schedule: Q01DX009 (ip), vehicle: saline); 199 % of control and 229 % of control (dose: 2.5 mg/kg/injection, schedule: Q01DX009 (ip), vehicle: saline); 187 % of control (dose: 3.75 mg/kg/injection, schedule: Q01DX009 (ip), vehicle: saline); 89 % of control and 98 % of control (dose: 5.0 mg/kg/injection, schedule: Q01DX009 (ip), vehicle: saline).

Take `C=C(C)C1CC2=C(C(=O)OC)C=C(O2)C(C(=C)C)C2OC(=O)/C(=C\C1O)C2OC` (stereo unspecified): the T/C reads like this: (dose: 11.88 mg/kg/injection, schedule: Q01DX005 (ip), vehicle: saline + alcohol) 99 % of control; (dose: 23.75 mg/kg/injection, schedule: Q01DX005 (ip), vehicle: saline + alcohol) 96 % of control; (dose: 47.5 mg/kg/injection, schedule: Q01DX005 (ip), vehicle: saline + alcohol) 101 % of control; (dose: 95.0 mg/kg/injection, schedule: Q01DX005 (ip), vehicle: saline + alcohol) 108 % of control; (dose: 190.0 mg/kg/injection, schedule: Q01DX005 (ip), vehicle: saline + alcohol) 99 % of control.

As to `O=C1CS(=O)(=O)C(c2ccc(Cl)cc2)N1N1C(=O)CS(=O)(=O)C1c1ccc(Cl)cc1` (stereo unspecified), the T/C by setting is: (dose: 25.0 mg/kg/injection, schedule: Q01DX005 (ip), vehicle: saline with Tween-80) 98 % of control and 109 % of control; under setting [5], 95 % of control and 96 % of control; under setting [6], 87 % of control and 95 % of control.

For `CC(=O)N1CCN(c2ccc(OCC3COC(Cn4ccnc4)(c4ccc(Cl)cc4Cl)O3)cc2)CC1` (stereo unspecified), the T/C reads like this: under setting [4], 88 % of control; under setting [11], 87 % of control.

Take `COc1cc2c(cc1O)-c1c(cnn1-c1ccc([N+](=O)[O-])cc1[N+](=O)[O-])CCC2`: the T/C was 100 % of control under setting [15], 99 % of control under setting [16] and 96 % of control under setting [17].
